{
  "source": "patent US8071294B2",
  "about": "“Cancer therapy sensitizer” (Dana-Farber Cancer Institute, priority 2003, dated 2011)",
  "molecules": {"B1": {"name": "SPARC: Secreted protein acidic and rich in cystein; exogenous SPARC polypeptide (Haematologic Technologies Inc) (protein, UniProt P09486 18-303, looked up)", "SPARC": "APQQEALPDETEVVEETVAEVTEVSVGANPVQVEVGEFDDGAEETEEEVVAENPCQNHHCKHGKVCELDENNTPMCVCQDPTSCPAPIGEFEKVCSNDNKTFDSSCHFFATKCTLEGTKKGHKLHLDYIGPCKYIPPCLDSELTEFPLRMRDWLKNVLVTLYERDEDNNLLTEKQKLRVKKIHENEKRLEAGDHPVELLARDFEKNYNMYIFPVHWQFGQLDQHPIDGYLSHTELAPLRAPLIPMEHCTTRFFETCDLDNDKYIALDEWAGCFGIKQKDIDKDLVI"}},
  "key": {"[1]": {"system": "MIP101 cells resistant to 5-FU (MIP-5FUR, MIP/5FU)", "experiment": "TUNEL assay of apoptosis in 5-FU resistant MIP101 cells", "assay_type": "cell-based", "procedure": "(§1) Cell Culture—The colorectal cell line MIP-101 was maintained in Dulbecco's modified Eagle's medium (DMEM) (Invitrogen) supplemented with 10% fetal bovine serum (FBS) (Invitrogen), 1% penicillin/streptomycin (Invitrogen) at 37° C. and 5% CO2. Resistant MIP101 cells were developed following long-term incubation with incremental concentrations of 5-fluorouracil (5-FU), irinotecan (CPT-11), cisplatin (CIS), and etoposide (ETO). Stable MIP101 cells transduced with SPARC (MIP/SP) were maintained in DMEM supplemented with 10% FBS, 1% penicillin/streptomycin, and 0.1% Zeocin at 37° C. and 5% CO2.\n(§2) Quantitation of Apoptosis—For the TUNEL assay, cells were plated onto glass coverslips in 6-well plates at 250,000 cells/plate overnight prior to any induction study 24 hours later. […] Cells were then processed for labeling by Apoptosis Detection Kit (Promega) according to the manufacturer's instructions. For quantitation of apoptosis, cells were plated at 250,000 cells/plate in 6-well plates overnight, followed by 12-hr incubation with the following chemotherapy agents: 5-FU 1000 μM, CPT-11 200 μM, cisplatin 100p4, and etoposide 10 μM. Cells were collected by using a nonenzymatic cell dissociation medium (Sigma), washed with phosphate-buffered saline and subsequently stained for Annexin V and propidium iodide using an Apoptosis detection kit (R & D Research) according to the manufacturer's protocol. The proportion of cells labeled with Annexin V and propidium iodide was analyzed by XL Flow Cytometry Analyzer. Data was collected from 100,000 events."}, "parental MIP101 cells": {"system": "parental MIP101 cells", "experiment": "TUNEL assay of apoptosis in parental MIP101 cells", "assay_type": "cell-based", "procedure": "as §1, §2"}, "MIP/SP cells [2]": {"system": "MIP/SP cells", "experiment": "Colony forming (clonogenic) assay, SPARC-overexpressing cells versus control", "assay_type": "cell-based", "conditions": "increasing concentrations of chemotherapy (FIG. 21B)", "procedure": "Transfection and Selection of Clone—The SPARC cDNA was cloned into pcDNA3.1 expression vector. Transfections were performed with 2.0 μg of the gene/expression vector construct using the polyethylenimine method of Boussiff et al. (1995) with minor modifications (Tai et al., 2002). After transfection, cells were washed with phosphate-buffered saline (PBS, pH 7.4) and maintained in culture medium for 24 hours, followed by a change to an appropriate selection medium containing 1% Zeocin. Cells were selected based on Zeocin resistance and individual colonies and clones from these colonies were then propagated for further verification. Stably transduced clones (MIP/SP) were screened for SPARC mRNA expression by reverse-transcription polymerase chain reaction (RT-PCR) analysis. MIP/SP clones with the highest expression of SPARC mRNA (by RT-PCR) and protein (by Western blot) were selected for subsequent in-vitro and in-vivo studies. Control cell lines used for this study included MIP101 cells stably transduced with pcDNA3.1 empty vector only (MLP/Zeo) and selected based on Zeocin resistance. Colony forming Assay—For clonogenic cell survival studies, MIP101 parental cells and MIP/SP cells were plated at 1,000 cells/plate in 48-well plates and incubated with increasing concentrations of 5-FU (0, 10 μM, 100 μM, 1000 μM), CPT-11 (0, 1 μM, 10 μM, 100 μM), or etoposide (0, 10 μM, 100 μM, 1000 μM) for 4 days. Cells were then washed with PBS and incubated in fresh medium containing the appropriate concentrations of chemotherapy for an additional 7 days. Each well was stained with crystal violet and the colonies with more than 50 cells were counted. The number of colonies formed in the treated group was calculated based on the colonies formed from the control, untreated cells."}, "MIP/SP cells [3]": {"system": "MIP/SP cells", "experiment": "Quantitation of apoptosis by Annexin V labeling and flow cytometry, SPARC-overexpressing cells versus control", "assay_type": "cell-based", "conditions": "12-hr exposure, p<0.05", "procedure": "Quantitation of Apoptosis—For the TUNEL assay, cells were plated onto glass coverslips in 6-well plates at 250,000 cells/plate overnight prior to any induction study 24 hours later. For the assessment of apoptosis following exogenous SPARC (Haematologic Technologies Inc), cells were incubated with SPARC 5 μg/ml for 24 hrs followed by a 12-hr exposure to 5-FU 1000 μM. Cells were then processed for labeling by Apoptosis Detection Kit (Promega) according to the manufacturer's instructions. For quantitation of apoptosis, cells were plated at 250,000 cells/plate in 6-well plates overnight, followed by 12-hr incubation with the following chemotherapy agents: 5-FU 1000 μM, CPT-11 200 μM, cisplatin 100p4, and etoposide 10 μM. Cells were collected by using a nonenzymatic cell dissociation medium (Sigma), washed with phosphate-buffered saline and subsequently stained for Annexin V and propidium iodide using an Apoptosis detection kit (R & D Research) according to the manufacturer's protocol. The proportion of cells labeled with Annexin V and propidium iodide was analyzed by XL Flow Cytometry Analyzer. Data was collected from 100,000 events.\nTransfection and Selection of Clone—The SPARC cDNA was cloned into pcDNA3.1 expression vector. Transfections were performed with 2.0 μg of the gene/expression vector construct using the polyethylenimine method of Boussiff et al. (1995) with minor modifications (Tai et al., 2002). After transfection, cells were washed with phosphate-buffered saline (PBS, pH 7.4) and maintained in culture medium for 24 hours, followed by a change to an appropriate selection medium containing 1% Zeocin. Cells were selected based on Zeocin resistance and individual colonies and clones from these colonies were then propagated for further verification. Stably transduced clones (MIP/SP) were screened for SPARC mRNA expression by reverse-transcription polymerase chain reaction (RT-PCR) analysis. MIP/SP clones with the highest expression of SPARC mRNA (by RT-PCR) and protein (by Western blot) were selected for subsequent in-vitro and in-vivo studies. Control cell lines used for this study included MIP101 cells stably transduced with pcDNA3.1 empty vector only (MLP/Zeo) and selected based on Zeocin resistance."}, "MIP101 tumor xenografts": {"system": "MIP101 tumor xenografts", "experiment": "MIP101 tumor xenograft animal model", "assay_type": "in vivo, NIH nude mice", "conditions": "5-FU alone, n=6", "procedure": "(§3) Concentrated SPARC-containing supernatant [SPARC(s)]—MIP/SP cells were plated at 1×10^6 cells in […] in DMEM (10% FBS, 1% penicillin/streptomycin, 0.1% Zeocin) for 24 hrs. Cells were subsequently washed with PBS twice and incubated in serum-free VP-SFM medium supplemented with glutamine 4 mM (Invitrogen) for 72 hrs. This medium was concentrated from 500 ml to 2 ml using Centricon Filter units (Millipore) at 4° C. All media collected and processed by this method were used for subsequent animal studies.\n(§4) Animal Studies—Tumor xenograft animal models were used to assess the effect of SPARC on tumor progression in-vivo. NIH nude mice (6 weeks old, Taconic Laboratories) were engrafted following subcutaneous injection of 2×10^6 cells into the left flank. Treatment regimens were initiated once the average tumor size was 50-75 mm^3 in size. Tumor measurements were performed using a hand-held caliper (Fisher) twice weekly and weight measurements were made concurrently until the completion of the study. Chemotherapy was provided using a 3-week cycle regimen for a total of 6 cycles: 5-FU 25 mg/kg or CPT-11 25 mg/kg intraperitoneal injections three times on week 1 of each cycle, followed by 2 weeks of treatment-free periods. Dosing schedule for SPARC(s) was 100 μL of SPARC(s) three times per week until the completion of the chemotherapy cycle."}, "MIP/5FU tumor xenografts": {"system": "MIP/5FU tumor xenografts", "experiment": "MIP/5FU tumor xenograft animal model", "assay_type": "in vivo, NIH nude mice", "conditions": "5-FU alone (FIG. 18), n=6", "procedure": "as §3, §4"}, "MIP/SP tumor xenografts": {"system": "MIP/SP tumor xenografts", "experiment": "Tumor xenografts of SPARC-overexpressing cells treated with chemotherapy", "assay_type": "in vivo, NIH nude mice", "conditions": "for rate of tumor regression, MIP/SP versus parental MIP101 xenografts: FIG. 14", "procedure": "as §4"}},
  "data": [
    {"molecule": "O=c1[nH]cc(F)c(=O)[nH]1", "note": "[5-FU, 5-fluorouracil]", "values": [
      {"measurement": "apoptosis (TUNEL)", "setting": "[1]; MIP-5FUR cells, 5-FU 500 uM", "result": "could not be triggered to undergo apoptosis"},
      {"measurement": "apoptosis (TUNEL stain)", "setting": "[1]; resistant phenotype (MIP/5FU), 5-FU 1000 uM (FIG. 21A)", "result": "lack of apoptosis"},
      {"measurement": "apoptosis (TUNEL)", "setting": "parental MIP101 cells; parental sensitive MIP101 cells, 5-FU at a similar concentration (500 uM)", "result": "a significant number of cells from the parental, sensitive cell line underwent apoptosis"},
      {"measurement": "apoptosis (TUNEL stain)", "setting": "parental MIP101 cells; sensitive MIP101 cells, 5-FU 1000 uM (FIG. 21A)", "result": "positively stained cells"},
      {"measurement": "cell colonies, MIP/SP versus MIP/Zeo", "setting": "MIP/SP cells [2]", "result": "fewer cell colonies of MIP/SP cells"},
      {"measurement": "cells undergoing apoptosis, MIP/SP versus MIP/Zeo", "setting": "MIP/SP cells [3]", "result": "Greater number"},
      {"measurement": "complete tumor regression", "setting": "MIP101 tumor xenografts; by 42 days post-treatment (FIG. 17)", "result": "not observed"},
      {"measurement": "complete tumor regression", "setting": "MIP101 tumor xenografts; by 84 days post-treatment (FIG. 16)", "result": "not observed"},
      {"measurement": "tumor growth", "setting": "MIP/5FU tumor xenografts", "result": "rapid tumor growth continued"},
      {"measurement": "rate of tumor regression, MIP/SP versus parental MIP101 xenografts", "setting": "MIP/SP tumor xenografts", "result": "more rapid rate of tumor regression"},
      {"measurement": "remission of MIP-SPARC xenograft", "setting": "MIP/SP tumor xenografts; representative animals, 2 cycles of 5-FU, by 23 days post-transplant", "result": "complete remission"}
    ]},
    {"molecule": "CCc1c2c(nc3ccc(OC(=O)N4CCC(N5CCCCC5)CC4)cc13)-c1cc3c(c(=O)n1C2)COC(=O)[C@]3(O)CC", "note": "[CPT-11, irinotecan]", "values": [
      {"measurement": "cell colonies, MIP/SP versus MIP/Zeo", "setting": "MIP/SP cells [2]", "result": "fewer cell colonies of MIP/SP cells"},
      {"measurement": "cells undergoing apoptosis, MIP/SP versus MIP/Zeo", "setting": "MIP/SP cells [3]", "result": "Greater number"},
      {"measurement": "rate of tumor regression, MIP/SP versus parental MIP101 xenografts", "setting": "MIP/SP tumor xenografts", "result": "more rapid rate of tumor regression"},
      {"measurement": "tumor size versus parental MIP101 xenograft", "setting": "MIP/SP tumor xenografts; representative animals, 2 cycles of CPT-11", "result": "significantly smaller tumors"}
    ]},
    {"molecule": "N.N.[Cl][Pt][Cl]", "note": "[cisplatin]", "values": [
      {"measurement": "cells undergoing apoptosis, MIP/SP versus MIP/Zeo", "setting": "MIP/SP cells [3]", "result": "Greater number"}
    ]},
    {"molecule": "COc1cc([C@@H]2c3cc4c(cc3[C@@H](O[C@@H]3O[C@@H]5CO[C@@H](C)O[C@H]5[C@H](O)[C@H]3O)[C@H]3COC(=O)[C@H]23)OCO4)cc(OC)c1O", "note": "[etoposide]", "values": [
      {"measurement": "cell colonies, MIP/SP versus MIP/Zeo", "setting": "MIP/SP cells [2]", "result": "fewer cell colonies of MIP/SP cells"},
      {"measurement": "cells undergoing apoptosis, MIP/SP versus MIP/Zeo", "setting": "MIP/SP cells [3]", "result": "Greater number"}
    ]},
    {"molecule": "B1", "values": [
      {"measurement": "sensitivity to 5-FU (TUNEL-positive cells)", "setting": "[1]; MIP/5FU cells, 24 hr SPARC 5 ug/ml, then 5-FU 1000 uM (FIG. 21A)", "result": "once again became sensitive to 5-FU"},
      {"measurement": "apoptosis (TUNEL), SPARC alone", "setting": "[1]; resistant cells, exogenous SPARC alone without chemotherapy", "result": "did not induce apoptosis"},
      {"measurement": "reversal of resistant phenotype (apoptotic cells by TUNEL)", "setting": "[1]; resistant clones, SPARC 24-hr incubation followed by 12-hr exposure to a chemotherapeutic agent", "result": "sufficient in reversing the resistant phenotype"},
      {"measurement": "apoptosis (TUNEL), SPARC alone", "setting": "parental MIP101 cells; parental MIP 101 cells, exogenous SPARC alone without chemotherapy", "result": "did not induce apoptosis"}
    ]}
  ]
}
